{
  "source": "patent US20180092947A1",
  "about": "“L-MYC Expression Maintains Self Renewal and Prolongs Multipotency of Primary Human Neural Stem Cells” (priority 2016, published 2018)",
  "tested_on": "U251 human glioma cells",
  "assay": "In vitro cytotoxicity assay, CPT-11 alone or with hCElm6 (CellTiter-Glo)",
  "format": "cell-based",
  "details": "irinotecan 0-100 μM for 4 hours, then 96 hours drug-free, conditioned medium from CE-expressing LM-NSC008 cells",
  "excerpt": "To explore the therapeutic potential of LM-NSC008 cells, we characterized their migration to tumor-conditioned media in vitro. […] We performed in vitro cytotoxicity assays using human U251 glioma cells and various concentrations of irinotecan alone or in combination with CE derived from LM-NSC008 cells adenovirally transduced to express hCElm6. We observed enhanced irinotecan toxicity (500-fold) in the presence of hCElm6 in the culture media, when compared with CPT-11 alone. CE (hCElm6) activity was measured at 995 nmol/min/ml in the conditioned media derived from LM-NSC008 cells prior to cytotoxicity experiment (FIG. 2D).\nHuman U251 glioma cell line was used in in vitro cytotoxicity assays as described previously (Metz et al., 2013). Briefly, cells were placed into 96-well plates (5,000 cells per well, in triplicate) in […] of culture media per well and cultured for 24 hours. Irinotecan (CPT-11), diluted in control culture medium or conditioned medium from CE-expressing LM-NSC008 cells, was then added to final concentrations of 0-100 μM. Cells were incubated with irinotecan for 4 hours, after which medium was aspirated and replaced with drug-free fresh medium, and cells were grown for an additional 96 hours. […]",
  "data": [
    {"molecule": "CCc1c2c(nc3ccc(OC(=O)N4CCC(N5CCCCC5)CC4)cc13)-c1cc3c(c(=O)n1C2)COC(=O)[C@]3(O)CC", "note": "[irinotecan]", "values": [
      {"measurement": "enhanced irinotecan toxicity in the presence of hCElm6 compared with CPT-11 alone", "value": 500, "unit": "fold"}
    ]}
  ]
}
